Read-outs that look alike come from different tables or passages of the source.
Assays:
[1] = tested on: rats with dietary hyperlipidemia; assay: The antihyperlipidemic activity in rats with dietary hyperlipidemia (Test 1); format: in vivo, Wister type male rats; details: Rattus norvegicus, cholesterol diet, 100 mg/kg oral once daily for 4 days, 24 hours after administration
Procedure: The antihyperlipidemic activity in rats with dietary hyperlipidemia.
In the tests, Wister type male rats (weight: 140 g) were used in groups of 6 each.
A feed containing 2% of cholesterol, 1% of sodium cholate and 5% of coconut oil was given for 4 days to cause hyperlipidemia.
Each active ingredient was suspended in a 1% aqueous solution of Tween 80 (® polyoxyethylene sorbitane monoalkylate) and the suspension was orally administered in a dose of 100 mg/kg once daily for 4 days starting with the supply of the cholesterol supplemented diet.
After 24 hours from the administration, blood was sampled and the concentration of total cholesterols in blood-plasma was measured by the method described in Clinical chemistry Vol. 22 page 393 (1968) and the concentration of triglyceride (neutral fat) was measured by Fletcher method (Clinica Chimica Acta) Vol. 10 page 451 (1964).
As the active ingredients, the compounds of the invention shown in Table and ethyl-α-(p-chlorophenoxy)-isobutylate having the formula [drawing 25] were used.

[2] = acute toxicity tests in mice (Test 2); details: mouse, in vivo; male mice, oral, in olive oil; mortality after 72 hours, area method
Procedure: In the acute toxicity tests, male mice (weight: 22 to 25 g) were used in groups of 10 each.
Each active ingredient was dissolved in olive oil and the solution was orally administrated in a volume corresponding to the body weight.
LD50 was calculated by the area method from the mortal percent after 72 hours from the administration.

[3] = total cholesterol in blood-plasma, read-out: Antihypertipidemic activity (%) Cholesterol
[4] = triglyceride (neutral fat), Fletcher method, read-out: Antihypertipidemic activity (%) Triglyceride

| Structure (SMILES) | inhibition in vivo at 100 mg/kg [1, 3] [%] | inhibition in vivo at 100 mg/kg [1, 4] [%] | LD50 at 72 h [2] [mg/kg] |
| --- | --- | --- | --- |
| CCOC(=O)C(Oc1cccnc1)C1CCCCC1 (stereo not drawn) [Compound 2] | 0 | 45 | 2500 |
| O=C(O)C(Oc1ccc(C2CCCCC2)cc1)C1CCCCC1 (stereo not drawn) [Compound 19, α-(p-cyclohexylphenoxy)α-cyclohexylacetic acid] | 35.8 | 32.4 | > 3000 |
| CCOC(=O)C(Oc1ccc(OC)cc1)C1CCCCC1 (stereo not drawn) [Compound 5] | 39 | 8.9 | > 3000 |
| CCOC(=O)C(Oc1ccc(C(C)(C)c2ccccc2)cc1)C1CCCCC1 (stereo not drawn) [Compound 9] | 40.3 | 28.1 | > 3000 |
| CCOC(=O)C(Oc1ccc(C(C)CC)cc1)C1CCCCC1 (stereo not drawn) [Compound 8] | 36.7 | 17.1 | > 3000 |
| CCOC(=O)C(Oc1ccc(-c2ccc(Cl)cc2)cc1)C1CCCCC1 (stereo not drawn) [Compound 18] | 43.7 | 40.5 | > 3000 |
| CCOC(=O)C(Oc1ccc(C2CCCCC2)cc1)C1CCCCC1 (stereo not drawn) [Compound 7, Ethyl α-(p-cyclohexylphenoxy)α-cyclohexylacetate] | 42.6 | 51.6 | > 3000 |
| CCOC(=O)C(Oc1ccc2c(c1)CCCC2)C1CCCCC1 (stereo not drawn) [Compound 10, Ethyl α-(5,6,7,8-tetrahydro-2-naphthoxy)-α-cyclohexylacetate] | 52.1 | 44.4 | 2500 |
| CCOC(=O)C(Oc1ccc(Cl)c2ccccc12)C1CCCCC1 (stereo not drawn) [Compound 15] | 0 | 53 | 2500 |
| CCOC(=O)C(Oc1ccc(Oc2ccc(Cl)cc2)cc1)C1CCCCC1 (stereo not drawn) [Compound 17] | 45.3 | 46.5 | > 3000 |
| CCOC(=O)C(Oc1cccc(C)c1)C1CCCCC1 (stereo not drawn) [Compound 13] | 7.9 | 59.7 | > 3000 |
| CCOC(=O)C(Oc1cccc(C(C)=O)c1)C1CCCCC1 (stereo not drawn) [Compound 12] | 14.3 | 11.5 | > 3000 |
| CCOC(=O)C(Oc1ccc(-c2ccccc2)cc1)C1CCCCC1 (stereo not drawn) [Compound 6, Ethyl α-(p-phenylphenoxy)α-cyclohexylacetate] | 52.3 | 44 | > 3000 |
| CCOC(=O)C(Oc1c(C)cccc1C)C1CCCCC1 (stereo not drawn) [Compound 4] | 38.5 | 0 | > 3000 |
| CCOC(=O)C(Oc1ccc(C(C)=O)cc1)C1CCCCC1 (stereo not drawn) [Compound 11] | 31.8 | 30.9 | > 3000 |
| CCOC(=O)C(Oc1ccc(Oc2ccccc2)cc1)C1CCCCC1 (stereo not drawn) [Compound 16, ethyl α-(p-phenoxyphenoxy)α-cyclohexylacetate] | 40.8 | 38.7 | > 3000 |
| CCOC(=O)C(Oc1ccc(CC)cc1)C1CCCCC1 (stereo not drawn) [Compound 14, Ethyl α-(p-ethylphenoxy)α-cyclohexylacetate] | 42.6 | 64.8 | > 3000 |
| CCOC(=O)C(Oc1cccc(C(F)(F)F)c1)C1CCCCC1 (stereo not drawn) [Compound 1] | 12.1 | 49.3 | 2500 |
| CCOC(=O)C(Oc1ccc(Cl)cc1)C1CCCCC1 (stereo not drawn) [Compound 3] | 43.3 | 31.5 | > 3000 |
